target: T1, proton pump (H+/K+-ATPase), porcine gastric vesicles (Sus scrofa, UniProt P19156); experiment: Inhibitory effects against proton pump (H+/K+-ATPase) activity, malachite green phosphate assay; assay type: biochemical; details: pH 6.4, 37° C., K+-dependent activity
T1 construct: reaction buffer (50 mmol/L Tris-Hepes buffer, pH 6.4) containing porcine gastric vesicles; from tissue; host or cells: porcine gastric mucosa (gastric vesicles prepared by centrifugation)
Procedure: Test Example 1: Preparation of Gastric Vesicles
Gastric vesicles used in the experiment were prepared by separation from porcine gastric mucosa according to a centrifugation method [Saccomani G, et al., A Nonelectrogenic H^+ Pump in Plasma Membranes of Hog Stomach, J Biol Chem., 1976, 251 (23), 7690-8]. Next, the protein content of the gastric vesicles was quantified using a bicinchoninic acid kit [Smith P K, et al., Measurement of protein using bicinchoninic acid, Anal Biochem., 1985, 150 (1), 76-85)].
Test Example 2: Measurement of Inhibitory Effects Against Proton Pump (H^+/K^+-ATPase) Activity
The inhibitory effects of the compounds against proton pump activity were calculated based on the pump activity determined in the presence of K^+ ions excluding the pump activity determined in the absence of K^+ ions. The inhibitory effects against proton pump activity were measured in 96-well plates, and all reactions were performed with a reaction volume of […] at 37° C. Specifically, 10 μm of valinomycin and each concentration of each compound were pre-incubated in a reaction buffer (50 mmol/L Tris-Hepes buffer, pH 6.4) containing porcine gastric vesicles for 15 minutes. For negative and positive control groups, 1% DMSO was added to buffer, and for test groups, 1% DMSO and a dilution of each concentration of each compound were added. Next, 0.2 mmol/L of adenosine triphosphate (ATP) was added to the reaction buffer and incubated at 37° C. for 40 minutes. After completion of the incubation, a malachite green solution was added to the reaction buffer and incubated for 30 minutes, and the amount of inorganic phosphate in the reaction buffer was measured by colorimetry using a malachite green phosphate assay Kit (Bioassay Systems). For colorimetry, the OD (optical density) at 620 nm was measured using a microplate reader [Synergy H4, hybrid multimode microplate reader, BioTek]. The percent inhibition of proton pump (H^+/K^+-ATPase) was determined based on the OD value of the control group and the OD values of various concentrations of the test compounds, and the IC50 of each test compound was calculated using the Logistic 4-parameter function of Sigmaplot 8.0 program.

T1 sequence (P19156 2-1034 limits assumed): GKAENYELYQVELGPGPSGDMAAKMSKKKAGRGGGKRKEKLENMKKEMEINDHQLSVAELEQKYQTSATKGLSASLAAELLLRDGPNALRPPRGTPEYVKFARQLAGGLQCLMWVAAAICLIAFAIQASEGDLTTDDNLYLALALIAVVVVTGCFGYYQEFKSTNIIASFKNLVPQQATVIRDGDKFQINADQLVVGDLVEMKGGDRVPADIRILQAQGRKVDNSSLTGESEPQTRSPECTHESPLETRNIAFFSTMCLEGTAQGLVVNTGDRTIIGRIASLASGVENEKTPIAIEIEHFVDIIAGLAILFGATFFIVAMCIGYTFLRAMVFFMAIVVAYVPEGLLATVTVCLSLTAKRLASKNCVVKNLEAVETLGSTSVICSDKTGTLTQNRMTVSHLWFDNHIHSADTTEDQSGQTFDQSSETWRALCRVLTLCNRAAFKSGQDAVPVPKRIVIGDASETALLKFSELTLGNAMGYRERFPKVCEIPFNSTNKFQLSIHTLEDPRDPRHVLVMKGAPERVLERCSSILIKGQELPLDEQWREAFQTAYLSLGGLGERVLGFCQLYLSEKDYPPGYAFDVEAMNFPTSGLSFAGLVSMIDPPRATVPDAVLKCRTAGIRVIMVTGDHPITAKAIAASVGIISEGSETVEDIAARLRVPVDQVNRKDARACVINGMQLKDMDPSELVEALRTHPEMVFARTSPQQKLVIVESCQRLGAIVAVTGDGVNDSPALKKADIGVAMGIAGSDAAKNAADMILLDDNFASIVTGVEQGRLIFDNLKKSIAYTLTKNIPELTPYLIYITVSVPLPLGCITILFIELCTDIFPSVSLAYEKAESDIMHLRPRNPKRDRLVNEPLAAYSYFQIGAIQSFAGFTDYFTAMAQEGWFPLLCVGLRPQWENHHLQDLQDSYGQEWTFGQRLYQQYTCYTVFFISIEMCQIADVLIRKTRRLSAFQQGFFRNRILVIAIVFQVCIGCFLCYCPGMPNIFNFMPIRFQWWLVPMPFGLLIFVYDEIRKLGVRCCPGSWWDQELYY
T1 sequence (P18434 whole entry partner): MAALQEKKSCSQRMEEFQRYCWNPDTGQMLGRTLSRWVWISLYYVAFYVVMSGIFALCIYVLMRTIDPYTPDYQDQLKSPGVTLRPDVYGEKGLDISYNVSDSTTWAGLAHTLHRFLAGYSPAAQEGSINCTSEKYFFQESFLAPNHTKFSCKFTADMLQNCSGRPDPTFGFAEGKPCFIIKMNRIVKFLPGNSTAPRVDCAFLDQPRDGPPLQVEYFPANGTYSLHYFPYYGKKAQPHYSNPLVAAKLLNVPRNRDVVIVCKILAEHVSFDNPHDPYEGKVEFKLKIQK

Q: How did the IC50 turn out when `CC(=O)OC1CN(C(=O)c2cc(NCc3c(C)cccc3C)c3nc(C)c(C)n3c2)C1` [Example 2, 1-{8-[(2,6-dimethylbenzyl)amino]-2,3-dimethylimidazo[1,2-α]pyridine-6-carbonyl}azetidin-3-yl acetate] was run?
A: 128 nM

Q: With `COC1CN(C(=O)c2cc(NCc3c(C)cccc3C)c3nc(C)c(C)n3c2)C1` [Example 3, {8-[(2,6-dimethylbenzyl)amino]-2,3-dimethylimidazo[1,2-α]pyridin-6-yl}(3-methoxyazetidin-1-yl)methanone] as the molecule, how does the IC50 read?
A: 90 nM

Q: With `CCOC1CN(C(=O)c2cc(NCc3c(C)cccc3C)c3nc(C)c(C)n3c2)C1` [Example 4, {8-[(2,6-dimethylbenzyl)amino]-2,3-dimethylimidazo[1,2-α]pyridin-6-yl}(3-ethoxyazetidin-1-yl)methanone] as the molecule, how does the IC50 read?
A: 93 nM

Q: For `COCCOC1CN(C(=O)c2cc(NCc3c(C)cccc3C)c3nc(C)c(C)n3c2)C1` [Example 5, {8-[(2,6-dimethylbenzyl)amino]-2,3-dimethylimidazo[1,2-α]pyridin-6-yl}[3-(2-methoxyethoxy)azetidin-1-yl]methanone], which IC50 is on record?
A: 117 nM

Q: `COC(=O)C1CN(C(=O)c2cc(NCc3c(C)cccc3C)c3nc(C)c(C)n3c2)C1` [Example 10, methyl 1-{8-[(2,6-dimethylbenzyl)amino]-2,3-dimethylimidazo[1,2-α]pyridine-6-carbonyl}azetidine-3-carboxylate] was tested. Which IC50 did it give?
A: 48 nM

Q: Which IC50 does the source give for `COCC1CN(C(=O)c2cc(NCc3c(C)cccc3C)c3nc(C)c(C)n3c2)C1` [Example 12, {8-[(2,6-dimethylbenzyl)amino]-2,3-dimethylimidazo[1,2-α]pyridin-6-yl}[3-(methoxymethyl)azetidin-1-yl]methanone] here?
A: 65 nM

Q: `Cc1cccc(C)c1CNc1cc(C(=O)N2CC(F)(CO)C2)cn2c(C)c(C)nc12` [Example 13, {8-[(2,6-dimethylbenzyl)amino]-2,3-dimethylimidazo[1,2-α]pyridin-6-yl}[3-fluoro-3-(hydroxymethyl)azetidin-1-yl]methanone] was tested. Which IC50 did it give?
A: 119 nM

Q: How did the IC50 turn out when `Cc1cccc(C)c1CNc1cc(C(=O)N2CC(C)(CO)C2)cn2c(C)c(C)nc12` [Example 14, {8-[(2,6-dimethylbenzyl)amino]-2,3-dimethylimidazo[1,2-α]pyridin-6-yl}[3-(hydroxymethyl)-3-methylazetidin-1-yl]methanone] was run?
A: 104 nM

Q: How did the IC50 turn out when `Cc1cccc(C)c1CNc1cc(C(=O)N2CC(C(C)O)C2)cn2c(C)c(C)nc12` (stereo not drawn) [Example 15, {8-[(2,6-dimethylbenzyl)amino]-2,3-dimethylimidazo[1,2-α]pyridin-6-yl}[3-(1-hydroxyethyl)azetidin-1-yl]methanone] was run?
A: 72 nM

Q: With `Cc1cccc(C)c1CNc1cc(C(=O)N2CC(C(C)(C)O)C2)cn2c(C)c(C)nc12` [Example 16, {8-[(2,6-dimethylbenzyl)amino]-2,3-dimethylimidazo[1,2-α]pyridin-6-yl}[3-(2-hydroxypropan-2-yl)azetidin-1-yl]methanone] as the molecule, how does the IC50 read?
A: 122 nM

Q: For `Cc1cccc(C)c1CNc1cc(C(=O)N2CCC2CO)cn2c(C)c(C)nc12` (stereo not drawn) [Example 17, {8-[(2,6-dimethylbenzyl)amino]-2,3-dimethylimidazo[1,2-α]pyridin-6-yl}[2-(hydroxymethyl)azetidin-1-yl]methanone], which IC50 is on record?
A: 180 nM

Q: With `CC(=O)C1CN(C(=O)c2cc(NCc3c(C)cccc3C)c3nc(C)c(C)n3c2)C1` [Example 18, 1-{1-[8-({2,6-dimethylbenzyl}amino)-2,3-dimethylimidazo[1,2-α]pyridine-6-carbonyl]azetidin-3-yl}ethanone] as the molecule, how does the IC50 read?
A: 140 nM

Q: Which IC50 does the source give for `Cc1cccc(C)c1CNc1cc(C(=O)N2CC(S(C)(=O)=O)C2)cn2c(C)c(C)nc12` [Example 19, {8-[(2,6-dimethylbenzyl)amino]-2,3-dimethylimidazo[1,2-α]pyridin-6-yl}[3-(methylsulfonyl)azetidin-1-yl]methanone] here?
A: 117 nM

Q: Which IC50 does the source give for `Cc1cccc(C)c1CNc1cc(C(=O)N2CC(CCO)C2)cn2c(C)c(C)nc12` [Example 20, {8-[(2,6-dimethylbenzyl)amino]-2,3-dimethylimidazo[1,2-α]pyridin-6-yl}[3-(2-hydroxyethyl)azetidin-1-yl]methanone] here?
A: 46 nM

Q: For `Cc1cccc(C)c1CNc1cc(C(=O)N2CC3(CNC3)C2)cn2c(C)c(C)nc12` [Example 21, {8-[(2,6-dimethylbenzyl)amino]-2,3-dimethylimidazo[1,2-α]pyridin-6-yl}(2,6-diazaspiro[3.3]heptan-2-yl)methanone], which IC50 is on record?
A: 600 nM

Q: Which IC50 does the source give for `Cc1cccc(C)c1CNc1cc(C(=O)N2CC3(COC3)C2)cn2c(C)c(C)nc12` [Example 22, {8-[(2,6-dimethylbenzyl)amino]-2,3-dimethylimidazo[1,2-α]pyridin-6-yl}(2-oxa-6-azaspiro[3.3]heptan-6-yl)methanone] here?
A: 79 nM

Q: Which IC50 does the source give for `Cc1ccccc1CNc1cc(C(=O)N2CC(O)C2)cn2c(C)c(C)nc12` [Example 23, {2,3-dimethyl-8-[(2-methylbenzyl)amino]imidazo[1,2-α]pyridin-6-yl}(3-hydroxyazetidin-1-yl)methanone] here?
A: 374 nM

Q: How did the IC50 turn out when `Cc1cc(F)ccc1CNc1cc(C(=O)N2CC(O)C2)cn2c(C)c(C)nc12` [Example 27, {8-[(4-fluoro-2-methylbenzyl)amino]-2,3-dimethylimidazo[1,2-α]pyridin-6-yl}(3-hydroxyazetidin-1-yl)methanone] was run?
A: 135 nM

Q: `Cc1cc(F)ccc1CNc1cc(C(=O)N2CCC2)cn2c(C)c(C)nc12` [Example 28, azetidin-1-yl {8-[(4-fluoro-2-methylbenzyl)amino]-2,3-dimethylimidazo[1,2-α]pyridin-6-yl}methanone] was tested. Which IC50 did it give?
A: 103 nM

Q: How did the IC50 turn out when `Cc1cc(F)ccc1CNc1cc(C(=O)N2CC(F)C2)cn2c(C)c(C)nc12` [Example 29, {8-[(4-fluoro-2-methylbenzyl)amino]-2,3-dimethylimidazo[1,2-α]pyridin-6-yl}(3-fluoroazetidin-1-yl)methanone] was run?
A: 645 nM

Q: With `Cc1cc(F)ccc1CNc1cc(C(=O)N2CC(C)C2)cn2c(C)c(C)nc12` [Example 30, {8-[(4-fluoro-2-methylbenzyl)amino]-2,3-dimethylimidazo[1,2-α]pyridin-6-yl}(3-methylazetidin-1-yl)methanone] as the molecule, how does the IC50 read?
A: 271 nM

Q: `Cc1cc(F)ccc1CNc1cc(C(=O)N2CC(C)(O)C2)cn2c(C)c(C)nc12` [Example 31, {8-[(4-fluoro-2-methylbenzyl)amino]-2,3-dimethylimidazo[1,2-α]pyridin-6-yl}(3-hydroxy-3-methylazetidine-1-yl)methanone] was tested. Which IC50 did it give?
A: 662 nM

Q: `COC1(C)CN(C(=O)c2cc(NCc3c(C)cccc3C)c3nc(C)c(C)n3c2)C1` [Example 32, {8-[(2,6-dimethylbenzyl)amino]-2,3-dimethylimidazo[1,2-α]pyridin-6-yl}(3-methoxy-3-methylazetidin-1-yl)methanone] was tested. Which IC50 did it give?
A: 187 nM

Q: Which IC50 does the source give for `Cc1cc(F)cc(C)c1CNc1cc(C(=O)N2CCC2)cn2c(C)c(C)nc12` [Example 35, azetidin-1-yl{8-[(4-fluoro-2,6-dimethylbenzyl)amino]-2,3-dimethylimidazo[1,2-α]pyridin-6-yl}methanone] here?
A: 16 nM

Q: Which IC50 does the source give for `Cc1cc(F)cc(C)c1CNc1cc(C(=O)N2CC(C)C2)cn2c(C)c(C)nc12` [Example 37, {8-[(4-fluoro-2,6-dimethylbenzyl)amino]-2,3-dimethylimidazo[1,2-α]pyridin-6-yl}(3-methylazetidin-1-yl)methanone] here?
A: 21 nM

Q: `Cc1cc(F)cc(C)c1CNc1cc(C(=O)N2CC(C)(O)C2)cn2c(C)c(C)nc12` [Example 38, {8-[(4-fluoro-2,6-dimethylbenzyl)amino]-2,3-dimethylimidazo[1,2-α]pyridin-6-yl}(3-hydroxy-3-methylazetidin-1-yl)methanone] was tested. Which IC50 did it give?
A: 41 nM

Q: `COCC1CN(C(=O)c2cc(NCc3c(C)cc(F)cc3C)c3nc(C)c(C)n3c2)C1` [Example 40, {8-[(4-fluoro-2,6-dimethylbenzyl)amino]-2,3-dimethylimidazo[1,2-α]pyridin-6-yl}[3-(methoxymethyl)azetidin-1-yl]methanone] was tested. Which IC50 did it give?
A: 134 nM

Q: How did the IC50 turn out when `Cc1ccc(F)c(C)c1CNc1cc(C(=O)N2CC(O)C2)cn2c(C)c(C)nc12` [Example 41, {8-[(3-fluoro-2,6-dimethylbenzyl)amino]-2,3-dimethylimidazo[1,2-α]pyridin-6-yl}(3-hydroxyazetidin-1-yl)methanone] was run?
A: 149 nM

Q: How did the IC50 turn out when `Cc1ccc(F)c(C)c1CNc1cc(C(=O)N2CCC2)cn2c(C)c(C)nc12` [Example 42, azetidin-1-yl{8-[(3-fluoro-2,6-dimethylbenzyl)amino]-2,3-dimethylimidazo[1,2-α]pyridin-6-yl}methanone] was run?
A: 85 nM

Q: With `Cc1ccc(F)c(C)c1CNc1cc(C(=O)N2CC(F)C2)cn2c(C)c(C)nc12` [Example 43, {8-[(3-fluoro-2,6-dimethylbenzyl)amino]-2,3-dimethylimidazo[1,2-α]pyridin-6-yl}(3-fluoroazetidin-1-yl)methanone] as the molecule, how does the IC50 read?
A: 174 nM
